# B1: OMP-18R5: monoclonal antibody that targets the Frizzled receptors to block association with WNT ligands (antibody, chains of the INN, looked up, V domains shown)
# VH: EVQLVESGGGLVQPGGSLRLSCAASGFTFSHYTLSWVRQAPGKGLEWVSVISGDGSYTYYADSVKGRFTISSDNSKNTLYLQMNSLRAEDTAVYYCARNFIKYVFANWGQGTLVTVSS
# VL: DIELTQPPSVSVAPGQTARISCSGDNIGSFYVHWYQQKPGQAPVLVIYDKSNRPSGIPERFSGSNSGNTATLTISGTQAEDEADYYCQSYANTLSLVFGGGTKLTVL
# B2: R-Spondin 1: specific Wnt activator (protein, UniProt Q2MKA7 21-263, looked up)
# R-spondin-1: SRGIKGKRQRRISAEGSQACAKGCELCSEVNGCLKCSPKLFILLERNDIRQVGVCLPSCPPGYFDARNPDMNKCIKCKIEHCEACFSHNFCTKCKEGLYLHKGRCYPACPEGSSAANGTMECSSPAQCEMSEWSPWGPCSKKQQLCGFRRGSEERTRRVLHAPVGDHAACSDTKETRRCTVRRVPCPEGQKRRKGGQGRRENANRNLARKESKEAGAGSRRRKGQQQQQQQGTVGPLTSAGPA
# What was measured:
# KBM5r cells = assay: miR-29 expression and anti-miR silencing in KBM5r cells (qRT-PCR); assay type: cell-based, human; conditions: imatinib 1 μM, nilotinib 1 μM, ponatinib 0.1 μM; 72 h
# Experimental: MicroRNA concentrations were measured using TaqMan miRNA Assays for miR-29a, miR-29b, miR-29c, or RNU48 (Applied Biosystems), and qRT-PCR results were normalized to RNU48 expression.
# 48 h after transfection, cells were harvested and subjected to total RNA extraction and cDNA synthesis for qRT-PCR.
# colon carcinoma cells = conditions: cited from earlier work
# Xenopus embryos = conditions: in vivo; cited from earlier work
# [1] = system: conditional APC mutant mice; conditions: mouse, in vivo; cited from earlier work
# [2] = system: CD34+ stem/progenitor cells from newly diagnosed CML patients; assay: Expression in FACS-sorted CD34+ CML stem/progenitor cells cultured ex vivo; conditions: imatinib 1 μM, 7 days
# [3] = system: CD34+ stem/progenitor cells from healthy donors; assay: Growth and colony formation of CD34+ stem/progenitor cells from BM of healthy donors; assay type: cell-based, human; conditions: anti-CD70 mAb 10 μg/ml, imatinib 1 μM, alone or combined; 7 or 14 days
# [4] = system: human CD34+ CML stem/progenitor cells; assay: Expression in human CML cells ex vivo from xenografted NSG mice; conditions: imatinib 50 mg/kg daily, 2 weeks
# Description: (g-l) CD70 (g), SP1 (h), DNMT1 mRNA (i), and miR-29 expression (j-l) (qRT-PCR) in CD34^+ cells. (n-m) Correlation of CD70 expression with the expression of selected Wnt target genes RUNX1 (m) and WISP1 (n) in CD34^+ stem/progenitor cells from newly diagnosed chronic phase CML patients. Expression data are derived from a public repository for microarray data and are available under accession number E-MEXP-480 (EMBL EBI Arrayexpress). […] Statistics: (c-e), one-way ANOVA; (f-l), Student's t test; (m) and (n), Spearman correlation.
# (p-r) CD70 and CD27 expression were determined on primary human CML cells. […] After 2 weeks of treatment, mice were euthanized and CML cells were analyzed for the expression of CD70 and CD27 by FACS. […] (p-q) red lines, CD70 and CD27 antibodies; blue lines, respective isotype controls.
# [5] = system: human CD34+ CML stem/progenitor cells; assay: Liquid culture of primary human CD34+ CML stem/progenitor cells: cell numbers, BrdU, viability; assay type: cell-based; conditions: 7 days; anti-CD70 mAb 10 μg/ml, imatinib 1 μM, alone or combined
# in vivo = conditions: NSG, mouse, plasma, oral, 50 mg/kg
# SD-1 cells = assay: Chou-Talalay drug combination study, growth inhibition of SD-1 cells (cell numbers after 72 h)
# [6] = system: human CD34+ CML stem/progenitor cells; assay: Murine xenograft CML model: human CML cells in BM of NSG mice; assay type: in vivo
# [7] = system: CD70 promoter in KBM5r cells; assay: DNA methylation analysis of the CD70 promoter by bisulfite sequencing; assay type: cell-based, human; conditions: ponatinib 0.1 μM or azacytidine 1 μM, vs vehicle
# Experimental: The methylation profile of the SP1 transcription factor binding sites within the KBM5r cell CD70 promoter was analyzed by bisulfite sequencing after treatment of KBM5r cells with either a control, ponatinib (0.1 μM) or azacytidine (1 μM).
# Bisulfite conversion of the isolated DNA samples from both KBM5 and KBM5r cells were assessed using the Epitect® Bisulfite Kit (Qiagen) according to the manufacturer's protocol. The promoter region covering binding sites for important transcription factors were selectively amplified using the following primers: forward primer (−227˜−205): 5′-[…]-3′ (SEQ ID NO.: 9); reverse primer (+14˜+35): 5′-[…]-3′(SEQ ID NO.: 10). For the amplification of bisulfite-treated genomic DNA (gDNA), the following PCR conditions were used: 1×: 95° C. for 10 min; 40×: 95° C. for 30 s, 58° C. for 40 s, 72° C. for 1 min; 1×72° C. for 5 min. The PCR cocktail was: 3 μl of DNA (of at least 10 ng/μL DNA for a final concentration of […]) in a 25 μl total volume using 0.5 pmol of each primer, 200 μM dNTPs, 0.2 U Hot Start Taq DNA polymerase, 1.5 mM MgCl2 and the buffer supplied with the enzyme. The amplified promoter region were gel-purified and subjected for fluorescent Sanger sequencing. The relative quantification of the methylated allele (C) versus unmethylated allele (T) was assessed by the QSVAnalyser software. […]
# [8] = system: imatinib-resistant KBM5r cells (BCR-ABL1 T315I); assay: CD70, SP1, DNMT1 expression and viability in imatinib-resistant KBM5r cells; assay type: cell-based, human
# Experimental: Specifically, 5×10^4 KBM5r cells were transduced overnight at 37° C. and 5% CO2 with 2×10^5 infectious units of shSP1 or the respective control lentiviral particles having scrambled RNA (Santa Cruz Biotechnology Inc.) in the presence of 5 μg/ml polybrene (Sigma-Aldrich) according to the manufacturer's instructions. After 18 hours, medium was removed, and cells were cultured in medium supplemented with 1 μg/ml puromycin to select for stable expression of shSP1 or scrambled RNA.
# KBM5r cells (1×10^5) stably transduced with shSP1 (shSP1), or the respective control scrambled RNA lentiviral particles (scr), were then cultured for 72 hours in the presence of vehicle or ponatinib (po; 0.1 μM). Treated cells were tested for MFI of CD70 protein expression (FACS) (FIG. 1, q), CD70 (FIG. 1, r) and SP1 (Figure, 1 s) mRNA expression (qRT-PCR).
# In a first experiment, 1×10^5 KBM5r cells were cultured in the presence of vehicle, ponatinib (po, 0.1 μM), lithium chloride (li, […]), or both in combination (po/li) for 24 h (FIG. 2, A-C). In a second experiment, 1×10^5 KBM5r cells were cultured in the presence of vehicle, ponatinib (po, 0.1 μM), R-Spondin 1 (R, 10 ng/ml), or both in combination (po/R) for 72 h (FIG. 2, D-E).
# DLD-1-cancer cells = conditions: colorectal adenocarcinoma derived; cited from earlier work
# β-catenin = conditions: cited from earlier work
# [9] = system: pancreatic tumor-initiating cells; conditions: cited from earlier work
# [10] = system: xenograft models of breast, lung, pancreatic, and colon cancer; conditions: in vivo; cited from earlier work
# [11] = 72 h, imatinib 1 μM, ponatinib 0.1 μM
molecule,measurement,setting,value
Cc1cn(-c2cc(NC(=O)c3ccc(C)c(Nc4nccc(-c5cccnc5)n4)c3)cc(C(F)(F)F)c2)cn1 [nilotinib],"miR-29a, miR-29b, miR-29c expression",KBM5r cells,did not affect miR-29s
"COc1ccc(C2(CNC(=O)c3ccc(NC(=O)c4ccco4)cc3)CCOCC2)cc1 [JW55, N-(4-(((4-(4-methoxyphenyl)tetrahydro-2H-pyran-4-yl)methyl)carbamoyl)phenyl)furan-2-carboxamide]",canonical WNT signaling,colon carcinoma cells; cells with mutations in APC locus or an allele of β-catenin,inhibited canonical WNT signaling
same,AXIN2 and β-catenin levels,colon carcinoma cells,"stabilization of AXIN2, a member of the β-catenin destruction complex, followed by increased degradation of β-catenin"
same,XWNT8-induced axis duplication,Xenopus embryos,reduced XWNT8-induced axis duplication
same,tamoxifen-induced polyposis formation,[1],reduced
Cc1ccc(NC(=O)c2ccc(CN3CCN(C)CC3)cc2)cc1Nc1nccc(-c2cccnc2)n1 [imatinib],CD70 protein expression,[2],increased CD70 protein expression
same,Dnmt 1 mRNA expression,[2],down-regulated
same,Dnmt3a mRNA expression,[2],down-regulated
same,SP1 mRNA expression,[2],increased
same,growth and colony formation of healthy donor CD34+ cells,[3],only marginally affected
same,"miR-29a, miR-29b, miR-29c expression",KBM5r cells,did not affect miR-29s
same,CD27 expression,[4],remained unchanged
same,CD70 expression on CD34+ CML stem/progenitor cells,[4],specifically increased CD70 expression on CD34+ CML stem/progenitor cells
same,"DNMT1 and miR-29a, miR-29b, miR-29c expression in CD34+ CML stem/progenitor cells",[4],"decreased the expression of DNMT1 and miR-29a, miR-29b, and miR-29c"
same,SP1 expression in CD34+ CML stem/progenitor cells,[4],up-regulation of SP1
same,cell proliferation (BrdU),[5],reduced cell proliferation
same,cell viability / cell death,[5],induced cell death
same,growth (cell numbers),[5],inhibited growth and proliferation
same,concentration at 2 weeks,in vivo,~1000 nM
same,"Fa (fraction affected), imatinib",SD-1 cells; imatinib 0.02 μM,0.001
same,"Fa (fraction affected), imatinib",SD-1 cells; imatinib 0.04 μM,0.040
same,"Fa (fraction affected), imatinib",SD-1 cells; imatinib 0.08 μM,0.149
same,"Fa (fraction affected), imatinib",SD-1 cells; imatinib 0.16 μM,0.201
same,"Fa (fraction affected), imatinib",SD-1 cells; imatinib 0.32 μM,0.243
same,"Fa (fraction affected), imatinib",SD-1 cells; imatinib 0.64 μM,0.351
same,"Fa (fraction affected), imatinib",SD-1 cells; imatinib 1.28 μM,0.432
same,"Fa (fraction affected), imatinib",SD-1 cells; imatinib 2.55 μM,0.527
same,"Fa (fraction affected), imatinib",SD-1 cells; imatinib 5.10 μM,0.689
same,"Fa (fraction affected), imatinib",SD-1 cells; imatinib 10.20 μM,0.791
same,frequencies and absolute numbers of CD45+CD33+ leukemia cells and CD34+ CML stem/progenitor cells in BM,"[6]; cells of patients 3, 4 and 5, 2 weeks of treatment",reduced cell frequencies and absolute numbers
same,eradication of CD34+ CML stem/progenitor cells in BM (NSG mice eradicated of treated),"[6]; patient 4 cells, 2 weeks of treatment",neither imatinib nor anti-CD70 mAb treatment alone eliminated all the CD34+ CML cells
same,CD45+CD33+ CML myeloid cell frequencies and absolute numbers in BM,"[6]; patient 4 cells, imatinib 50 mg/kg daily p.o., anti-CD70 mAb 10 mg/kg i.p. every 3rd day, 2 weeks",significantly reduced
Cc1ccc(C(=O)Nc2ccc(CN3CCN(C)CC3)c(C(F)(F)F)c2)cc1C#Cc1cnc2cccnn12 [ponatinib],"miR-29a, miR-29b, miR-29c expression",KBM5r cells,down-regulation of all three miR-29s
same,CD70 promoter DNA methylation,[7],significantly reduced CD70 promoter DNA methylation
same,CD70 mRNA expression,[8]; [11],induced
same,Dnmt 1 mRNA expression,[8]; [11],down-regulated Dnmt1 mRNA
same,SP1 mRNA expression,[8]; [11],up-regulated SP1
same,CD70 protein expression (FACS),"[8]; 72 h, therapeutic concentration (imatinib 1 μM, ponatinib 0.1 μM)",induced CD70 protein expression
same,CD70 protein expression (MFI) early after treatment,"[8]; ponatinib 0.1 μM, 16 h",already up-regulated after 16 hours
same,cell death (Annexin-V/7-AAD FACS),"[8]; ponatinib 0.1 μM, 16 h",did not induce substantial cell death
same,CD70 expression in SP1 knockdown (shSP1) KBM5r cells,"[8]; ponatinib 0.1 μM, 72 h, vs scrambled control RNA cells",did not up-regulate CD70
[Cl-].[Li+] [lithium chloride],"TKI-mediated changes in CD70, SP1, DNMT1 mRNA expression","[8]; lithium chloride 10 μM with ponatinib 0.1 μM, 24 h",restored TKI-mediated changes in gene expression
O=c1nc(-c2ccc(C(F)(F)F)cc2)[nH]c2c1CSCC2 [XAV939],growth of DLD-1 cancer cells,DLD-1-cancer cells,inhibits growth
same,WNT-stimulated accumulation of β-catenin,β-catenin,blocks WNT-stimulated accumulation of β-catenin
B1,capabilities of pancreatic tumor-initiating cells,[9],potently block the capabilities of pancreatic tumor-initiating cells
same,interaction with standard-of-care treatment,[10],synergized with standard-of-care treatment
same,tumor growth,[10],significant inhibition of tumor growth
B2,"TKI-mediated changes in CD70, SP1, DNMT1 mRNA expression","[8]; R-Spondin 1 10 ng/ml with ponatinib 0.1 μM, 72 h",restored TKI-mediated changes in gene expression

# Source: US10391168B1, “Anti-CD70 combination therapy” (University of Bern, priority 2014, dated 2019)
